Literature values in patent US9895328B2, “Calcium formate as a supplement to prevent neural tube defects” (BOARD OF REGENTS, THE UNIVERSITY OF TEXAS SYSTEM, priority 2013, dated 2018).

How the values were obtained:
Amt null embryos = settings: maternal supplementation; cited from earlier work
[1] = test system: neural tube defects (NTDs); settings: periconceptional intake of supplemental folic acid, some populations; cited from earlier work

CSCC[C@H](N)C(=O)O [methionine]
neurulation in Amt null embryos (Amt null embryos): significantly improves neurulation

Nc1nc2ncc(CNc3ccc(C(=O)NC(CCC(=O)O)C(=O)O)cc3)nc2c(=O)[nH]1 (stereo in doubt) [folic acid, pteroyl-L-glutamic acid]
reduction of the incidence of NTDs [1]: ≤ 70% | neurulation in Amt null embryos (Amt null embryos): no effect
